Measurements taken from PubChem BioAssay (NCI).
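Step 1: Grow cells in 96-well plates. Step 2: Expose to compound for 48 hours at 5 concentrations. Step 3: Interpolate endpoints linearly; if unreached, use highest concentration. The concentration for full growth arrest is given as TGI.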 *1 amine or outer side, *2 acyl side, *3 side chain or, on linkers, in order; H or OH if unused. Where a SMILES comes first, the peptide text is derived from it. [ ]: non-standard residue; d: D form. X32 = C[C@H](N[*:1])C(=O)C(C)(C)C(=O)[*:2]; Hmpa(2S,3S) = CC[C@H](C)[C@H](O)C(=O)O; NMeY = CN[C@@H](Cc1ccc(O)cc1)C(=O)O; NMeL = CN[C@@H](CC(C)C)C(=O)O; NMeV = CN[C@H](C(=O)O)C(C)C; βAla = NCCC(=O)O

What was measured:
Assay in all cases: growth of human tumour cells (NCI), 48 h
DU-145 prostate = tested on: DU-145 prostate
KM12 colon = tested on: KM12 colon
SK-MEL-2 melanoma = tested on: SK-MEL-2 melanoma
IGROV1 ovarian = tested on: IGROV1 ovarian
SK-MEL-5 melanoma = tested on: SK-MEL-5 melanoma
EKVX NSCLC = tested on: EKVX NSCLC
MDA-N = tested on: MDA-N
HT29 colon = tested on: HT29 colon
OVCAR-3 ovarian = tested on: OVCAR-3 ovarian
CCRF-CEM leukemia = tested on: CCRF-CEM leukemia

Structure (SMILES) | TGI (DU-145 prostate) [µM] | TGI (KM12 colon) [µM] | TGI (SK-MEL-2 melanoma) [µM] | TGI (IGROV1 ovarian) [µM] | TGI (SK-MEL-5 melanoma) [µM] | TGI (EKVX NSCLC) [µM] | TGI (MDA-N) [µM] | TGI (HT29 colon) [µM] | TGI (OVCAR-3 ovarian) [µM] | TGI (CCRF-CEM leukemia) [µM]
COc1ccc2nc(-c3ccc(O)cc3)sc2c1 | > 100 | 86.9 | > 100 | 36.2 | 38 | 35.7 | 50.8 | 37.2 | 36.2 | 
CC[C@H](C)[C@@H]1OC(=O)CCNC(=O)[C@@H](C)NC(=O)C(C)(C)C(=O)[C@H](C)NC(=O)[C@H](Cc2ccc(OC)cc2)N(C)C(=O)[C@H](C(C)C)N(C)C(=O)CNC(=O)[C@H](CC(C)C)N(C)C(=O)CNC1=O (cyclo(G[NMeL]G[NMeV][NMeY](Me)[X32][dA][βAla][Hmpa(2S,3S)])) | > 39.2 |  | 6.48 | 4.16 | 0.228 | 22.7 | > 31.8 | 10.2 | 14.3 | 2.2
Cc1ccc(S(=O)(=O)N2CCCSCC2)cc1 | > 100 | > 100 |  |  | > 100 |  | > 100 | > 100 |  | > 100
C=CCc1cccc2cc(C(=O)Nc3ccccn3)c(=N)oc12 | > 100 | > 100 | > 100 | > 100 | > 100 |  |  | > 100 | > 100 | > 100
C[C@@H]1CC[C@@H]2[C@@H](C1)O[C@@H]([C@H](C)OCc1ccccc1)SC2(C)C | > 100 | 36.1 | 33 | > 100 | 33 | > 100 | 65.5 | > 100 |  | 
CC1(C)CCC[C@]2(C)[C@H]3[C@H](C#N)c4cc(O)c(O)cc4O[C@@]3(C)CC[C@@H]12 | > 10 | > 10 | > 10 | > 10 | > 10 | > 10 | > 10 |  | > 10 | > 10
Cc1ccc2c(c1)-c1nc(N)c(C#N)c(-c3ccccc3)c1CCS2(=O)=O | > 100 | > 100 | > 100 | > 100 | > 100 |  | > 100 | > 100 | > 100 | 
O=c1/c(=C/c2ccc(-c3ccc(Cl)cc3Cl)o2)sc2n1[C@@H](c1ccc(Cl)cc1)C=C(c1cc(F)c(Cl)cc1Cl)N=2 | > 100 | > 100 | > 100 | > 100 | > 100 |  | > 100 | > 100 |  | 
COc1ccc(SCc2cc(OCc3ccccc3)c(OCc3ccccc3)c(OCc3ccccc3)c2)cc1 | 3.13 | 3.16 |  | 3.34 |  | 4.37 | 3.29 |  | 3.04 | 3.49
C(=C\c1ccco1)/c1cccc(/C=C/c2ccco2)n1 | > 50 | > 50 |  | > 50 | > 50 | > 50 | > 50 | > 50 | > 50 | > 50
Cc1ccccc1S(=O)(=O)Nn1cnc2ccc(S(=O)(=O)Nc3ccc(Cl)cc3)cc2c1=O | > 100 | > 100 | > 100 | > 100 |  | > 100 | > 100 | > 100 | > 100 | > 100
CCN(CC)C(=O)C(C)n1cc(C)c(=O)[nH]c1=O (stereo not given) |  | > 100 | > 100 | > 100 | > 100 | > 100 |  | > 100 | > 100 | > 100
O=C1c2ccc(O)c(O)c2C(=O)c2c(O)ccc(O)c21 |  | 98.9 | 66.5 | > 100 |  | 67.4 |  | > 100 | 49.7 | 56.7
CC1=C(C)Cc2c(O)ccc(O)c2C1 | 39.7 | > 100 |  |  | 27.7 | 29.5 | 30.7 | 30.5 | 43.2 | 16.2
C=C1C2C[C@@H]3O[C@H]4C[C@H]5O[C@@]6(C[C@@H]7O[C@]8(C[C@H](C)[C@@H]9O[C@@H]%10CC(CO)O[C@@H]%10C[C@@H]9O8)C[C@H](C)[C@@H]7O6)C[C@H]5O[C@H]4[C@H](C)[C@H]3OC(=O)C[C@H]3CC[C@@H]4OC5[C@H]6O[C@]7(CC[C@H]8CC(=C)[C@H](CC[C@@H](C[C@H]1C)O2)O8)CC6O[C@@H]5[C@@H](O7)[C@H]4O3 (stereo not given in full) |  |  | > 1 | > 1 | 0.00332 | > 1 |  |  | > 1 | > 1
CCN1CCC(O)(c2ccc(Cl)cc2)C(C(=O)c2ccc(Cl)cc2)C1 (stereo not given) |  | > 100 | > 100 | > 100 | > 100 | > 100 |  | > 100 | > 100 | > 100
OC(c1cc(C23CC4CC(CC(C4)C2)C3)nc2c(Cl)cc(Cl)cc12)C1CCCCN1 (stereo not given) | 3.29 | 3.07 | 3.46 | 3.45 |  | 3.59 |  | 3.04 | 3.3 | 
COc1ccc(-c2cc3[nH]nc(N)c3c(=O)o2)cc1 |  | > 100 | > 100 | > 100 | > 100 | > 100 |  | > 100 |  | > 100
COCN1C(=O)[C@@H]2CCCN2C(=O)c2cc(N)ccc21 | > 100 | > 100 | > 100 | > 100 |  | > 100 | > 100 | > 100 |  | 
C=CC(Cl)(CBr)CCC(Br)C(C)(C)Cl (stereo not given) | 42.8 |  | 37.5 | 26.3 | 25.8 | 42.4 | 32.4 | 28.9 | 33.2 | 29
COc1cc(/C=C/C(=O)C2(C(=O)/C=C/c3cc(OC)c(OC)c(OC)c3)CCCCC2)cc(OC)c1OC | > 100 | 75.9 | > 100 | > 100 | > 100 | > 100 |  | > 100 | 58.4 | > 100
Nc1nc2c3nc(Nc4ccccc4)sc3nc(=O)n2c2sc(Nc3ccccc3)nc12 |  |  |  | > 100 | > 100 | > 100 |  | > 100 |  | > 100
